# According to patent US4746349A, “Method and compositions for suppressing the nitrification of ammonium in plant growth medium” (American Cyanamid Company, priority 1986, dated 1988):
# Where a name gives a salt, the structure may show the parent alone.
# Assays:
# [1] = test system: Nitrobacter spp.; test: Nitrite nitrogen in ammonium amended soil incubated at 25° C.; conditions: soil 25° C., 200 ppm N
# Protocol: Determination of nitrite nitrogen and nitrate nitrogen in soil prepared in Example 1 above, which is amended with 200 ppm of nitrogen as aqueous ammonium sulfate, […], is determined using the nitrite and nitrate analysis of the American Organization of Analytical Chemists (AOAC pp. 653-655).
# [2] = test system: Nitrosomonas spp.; test: Nitrification of ammonium in soil incubated at 25° C. (ammonium recovery, nitrate accumulation); conditions: soil 25° C.; for Concentration of nitrate nitrogen / Recovery of Ammonium Nitrogen: 200 ppm N
# Protocol: In these evaluations, one hundred grams (100 g) of oven dry, silt loam field soil with low residual nitrogen is added to a 6×12 cm screw-capped glass jar for each sampling date to provide an optimum environment for nitrification.
# Two replicates of each treatment-sampling date are established. The soil is adjusted to 50% water saturation with an aqueous solution of ammonium sulfate at 200 ppm N and the chemical to be tested as a nitrification inhibitor at rates of from 0.10 to 0.50 ppm.
# Incubation is at either 25° C. or 38° C. for 0, 1, 2, 4, 7, 9, 12, 16 or 20 weeks. Inorganic N is extracted by adding 2M KCl (10:1 v/w) and shaking for one hour, allowing settling for fifteen minutes. A 10 ml aliquot from the supernatant is assayed for ammonium, nitrite and nitrate by standard steam distillation methods (AOAC, pp. 653-655). Nitrapyrin (0.5 ppm) is used as a nitrification inhibitor for comparison. Benzyl alcohol, acetone, and a non-N amended soil are run as controls and as a check on mineralization.
# Nitrification: Ammonium recovery and nitrate accumulation are indicative of nitrification, and data obtained with test compounds are reported in Tables I and II.
structure (smiles),measurement,setting,value
"CC[C@@]1([C@@H]2O[C@@H]([C@H]3O[C@@](O)(CO)[C@H](C)C[C@@H]3C)C[C@@H]2C)CC[C@H]([C@]2(C)CC[C@]3(C[C@H](O)[C@@H](C)[C@@H]([C@@H](C)[C@@H](OC)[C@H](C)C(=O)O)O3)O2)O1 [Monensin sodium salt, Monensin]",Concentration of nitrite nitrogen,"[1]; 0.10 ppm, week 0",9 ppm
same,Concentration of nitrite nitrogen,"[1]; 0.10 ppm, week 1",-4 ppm
same,Concentration of nitrite nitrogen,"[1]; 0.10 ppm, week 2",4 ppm
same,Concentration of nitrite nitrogen,"[1]; 0.10 ppm, week 4",11 ppm
same,Concentration of nitrite nitrogen,"[1]; 0.10 ppm, week 7",7 ppm
same,Concentration of nitrite nitrogen,"[1]; 0.10 ppm, week 9",16 ppm
same,Concentration of nitrite nitrogen,"[1]; 0.10 ppm, week 12",18 ppm
same,Concentration of nitrite nitrogen,"[1]; 0.10 ppm, week 16",7 ppm
same,Concentration of nitrite nitrogen,"[1]; 0.10 ppm, week 20",11 ppm
same,Concentration of nitrite nitrogen,"[1]; 0.25 ppm, week 0",6 ppm
same,Concentration of nitrite nitrogen,"[1]; 0.25 ppm, week 1",3 ppm
same,Concentration of nitrite nitrogen,"[1]; 0.25 ppm, week 2",6 ppm
same,Concentration of nitrite nitrogen,"[1]; 0.25 ppm, week 4",7 ppm
same,Concentration of nitrite nitrogen,"[1]; 0.25 ppm, week 7",-4 ppm
same,Concentration of nitrite nitrogen,"[1]; 0.25 ppm, week 9",17 ppm
same,Concentration of nitrite nitrogen,"[1]; 0.25 ppm, week 12",30 ppm
same,Concentration of nitrite nitrogen,"[1]; 0.25 ppm, week 16",3 ppm
same,Concentration of nitrite nitrogen,"[1]; 0.25 ppm, week 20",90 ppm
same,Concentration of nitrite nitrogen,"[1]; 0.50 ppm, week 0",6 ppm
same,Concentration of nitrite nitrogen,"[1]; 0.50 ppm, week 1",5 ppm
same,Concentration of nitrite nitrogen,"[1]; 0.50 ppm, week 2",6 ppm
same,Concentration of nitrite nitrogen,"[1]; 0.50 ppm, week 4",0 ppm
same,Concentration of nitrite nitrogen,"[1]; 0.50 ppm, week 7",2 ppm
same,Concentration of nitrite nitrogen,"[1]; 0.50 ppm, week 9",-7 ppm
same,Concentration of nitrite nitrogen,"[1]; 0.50 ppm, week 12",4 ppm
same,Concentration of nitrite nitrogen,"[1]; 0.50 ppm, week 16",2 ppm
same,Concentration of nitrite nitrogen,"[1]; 0.50 ppm, week 20",22 ppm
same,Concentration of nitrate nitrogen,"[2]; 0.10 ppm, week 0",18 PPM
same,Concentration of nitrate nitrogen,"[2]; 0.10 ppm, week 1",17 PPM
same,Recovery of Ammonium Nitrogen,"[2]; 0.10 ppm, week 1",175 PPM
same,Concentration of nitrate nitrogen,"[2]; 0.10 ppm, week 2",17 PPM
same,Recovery of Ammonium Nitrogen,"[2]; 0.10 ppm, week 2",175 PPM
same,Concentration of nitrate nitrogen,"[2]; 0.10 ppm, week 4",45 PPM
same,Recovery of Ammonium Nitrogen,"[2]; 0.10 ppm, week 4",155 PPM
same,Concentration of nitrate nitrogen,"[2]; 0.10 ppm, week 7",199 PPM
same,Recovery of Ammonium Nitrogen,"[2]; 0.10 ppm, week 7",17 PPM
same,Concentration of nitrate nitrogen,"[2]; 0.10 ppm, week 9",220 PPM
same,Recovery of Ammonium Nitrogen,"[2]; 0.10 ppm, week 9",3 PPM
same,Concentration of nitrate nitrogen,"[2]; 0.10 ppm, week 12",206 PPM
same,Recovery of Ammonium Nitrogen,"[2]; 0.10 ppm, week 12",2 PPM
same,Concentration of nitrate nitrogen,"[2]; 0.10 ppm, week 16",213 PPM
same,Recovery of Ammonium Nitrogen,"[2]; 0.10 ppm, week 16",5 PPM
same,"Specific inhibition of nitrification through activity against Nitrosomonas spp., in words",[2]; 0.1 to 0.5 ppm,appear to specifically inhibit nitrification through activity against Nitrosomonas spp.
same,Concentration of nitrate nitrogen,"[2]; 0.25 ppm, week 0",19 PPM
same,Concentration of nitrate nitrogen,"[2]; 0.25 ppm, week 1",22 PPM
same,Recovery of Ammonium Nitrogen,"[2]; 0.25 ppm, week 1",179 PPM
same,Concentration of nitrate nitrogen,"[2]; 0.25 ppm, week 2",21 PPM
same,Concentration of nitrate nitrogen,"[2]; 0.25 ppm, week 4",23 PPM
same,Concentration of nitrate nitrogen,"[2]; 0.25 ppm, week 7",28 PPM
same,Concentration of nitrate nitrogen,"[2]; 0.25 ppm, week 9",54 PPM
same,Recovery of Ammonium Nitrogen,"[2]; 0.25 ppm, week 9",157 PPM
same,Concentration of nitrate nitrogen,"[2]; 0.25 ppm, week 12",70 PPM
same,Recovery of Ammonium Nitrogen,"[2]; 0.25 ppm, week 12",124 PPM
same,Concentration of nitrate nitrogen,"[2]; 0.25 ppm, week 16",158 PPM
same,Recovery of Ammonium Nitrogen,"[2]; 0.25 ppm, week 16",74 PPM
same,Concentration of nitrate nitrogen,"[2]; 0.25 ppm, week 20",121 PPM
same,Recovery of Ammonium Nitrogen,"[2]; 0.25 ppm, week 20",21 PPM
same,Concentration of nitrate nitrogen,"[2]; 0.50 ppm, week 0",18 PPM
same,Concentration of nitrate nitrogen,"[2]; 0.50 ppm, week 1",18 PPM
same,Recovery of Ammonium Nitrogen,"[2]; 0.50 ppm, week 1",176 PPM
same,Concentration of nitrate nitrogen,"[2]; 0.50 ppm, week 2",21 PPM
same,Concentration of nitrate nitrogen,"[2]; 0.50 ppm, week 4",22 PPM
same,Concentration of nitrate nitrogen,"[2]; 0.50 ppm, week 7",23 PPM
same,Concentration of nitrate nitrogen,"[2]; 0.50 ppm, week 9",19 PPM
same,Concentration of nitrate nitrogen,"[2]; 0.50 ppm, week 12",22 PPM
same,Concentration of nitrate nitrogen,"[2]; 0.50 ppm, week 16",121 PPM
same,Recovery of Ammonium Nitrogen,"[2]; 0.50 ppm, week 16",110 PPM
same,Concentration of nitrate nitrogen,"[2]; 0.50 ppm, week 20",72 PPM
same,Recovery of Ammonium Nitrogen,"[2]; 0.50 ppm, week 20",143 PPM
